Assays:
THX cells = experiment: Photochemically induced GFP expression after pEGFP-N1-pLys transfection (flow cytometry); assay type: cell-based; conditions: for change in GFP expression with photosensitiser and light: pEGFP-N1-pLys complex plus photosensitiser and light, FIG. 5a, 5b; for fraction of the cells positive for GFP: AlPcS2a plus pEGFP-N1-pLys complex
Experimental: Plasmid-pLys complexes (charge ratio, 1.7) were prepared by gently mixing 5 μg plasmid (pEGFP-N1; Clontech Laboratories, Inc., Palo Alto, Calif.) in 75 μl of HBS with 5.3 μg pLys (MW 20700; Sigma, St. Louis, Mo.) in 75 μl of HBS. The solutions were incubated for 30 min at room temperature, diluted with culture medium and added to the cells.
THX cells were incubated with 20 μg/ml AlPcS2a for 18 hours at 37° C., washed and incubated in sensitizer-free medium for 3 hours before incubation with plasmid-pLys complexes for 2 hours. The pEGFP-N1/pLys treated THX cells were washed once and incubated for 2 hours in culture medium without additions before exposure to light. The cells were incubated at 37° C. for 2 days, subcultured and further incubated for an additional 5 days before analysis of GFP expression by flow cytometry.
The cells were trypsinised, centrifuged, resuspended in 400 μl of culture medium and filtered through a 50 μm mesh nylon filter. The cells were then analysed in a FACStar plus flow cytometer (Becton Dickinson). Green Fluorescent Protein (GFP) was measured through a 510-530 nm filter after excitation with an argon laser (200 mW) tuned on 488 nm. AlPcS2a was measured through a 650 nm longpass filter after excitation with a krypton laser (50 mW) tuned on 351-356 nm. Cell doublets were discriminated from single cells by gating on the pulse width of the GFP fluorescence signal. The data were analysed with PC Lysys II software (Becton Dickinson).
The expression of GFP was analysed by flow cytometry (FIGS. 5a and b) and fluorescence microscopy (data not shown). […] The fraction of the cells that was positive for this reporter molecule increased from 1% at no light treatment to 50% after a 5-min light exposure. […] Consequently, in a light-directed manner, PCI can substantially increase the efficiency of transfection of a functional gene to THX cells.

NHIK 3025 cells = experiment: PCI-induced release of endocytosed HRP into the cytosol; assay type: cell-based, human; conditions: 3.2 μg/ml TPPS2a and 1 mg/ml HRP for 18 h, then light; FIG. 4
Experimental: In this experiment NHIK 3025 cells (carcinoma cells in situ from human cervix) were treated with the photosensitising agent TPPS2a (3.2 μg/ml) and 1 mg/ml HRP for 18 hours. HRP activity was measured according to the procedure described in Steinman et al., J. Cell Biol., 68: 665-687, 1976. Cytosol was separated from cytosol-free cell corpses by electropermeabilisation and a density centrifugation technique (Berg et al., Int. J. Cancer 59: 814-822, 1994).

BL2-G-E6 cells = experiment: Photochemically induced relocalisation of fluorescein-labelled ras peptide (fluorescence microscopy); assay type: cell-based, mouse; conditions: peptide plus AlPcS2a; after a 4-min exposure to red light
Experimental: Two different light sources were used for treatment of the cells, both consisting of a bank of 4 fluorescent tubes.
The cells were analysed by fluorescence microscopy as described in Berg. K., et al., Biochem. Biophys. Acta., 1370: 317-324, 1998. For analysis of fluorescein-labelled molecules the microscope was equipped with a 450-490 nm excitation filter, a 510 nm dichroic beam splitter and a 510-540 nm band pass emission filter.
BL2-G-E6 cells were incubated with 30 μg/ml of the fluorescein-labelled p21^ras-derived peptide for 18 hours followed by 20 μg/ml AlPcS2a for 18 hours and 1 hour in drug-free medium before exposure to red light.
To evaluate PCI for cytosolic delivery of cancer-specific peptides, a fluorescein-labelled p21^ras peptide encompassing residues 5-21 and containing a Val^12 mutation (G12V) was used (Gjertsen, M. K., et al., Int. J. Cancer, 72: 784-790, 1997). […] Similar effects were not observed in cells exposed to the fluorescein-labelled ras peptide and light only (data not shown).

Oc1cccc(-c2c3nc(c(-c4cccc(O)c4)c4ccc([nH]4)c(-c4cccc(O)c4)c4nc(c(-c5cccc(O)c5)c5ccc2[nH]5)C=C4)C=C3)c1 [3-THPP]
change in GFP expression with photosensitiser and light (THX cells): only a minor increase

Horseradish Peroxidase [HRP]
fraction of endocytosed HRP released into the cytosol (NHIK 3025 cells): > 60%

aluminum phthalocyanine with 2 sulfonate groups on adjacent phenyl rings [AlPcS2a]
localisation after light exposure (BL2-G-E6 cells): located diffusely in the cytoplasm | fraction of the cells positive for GFP (THX cells; after a 5-min light exposure): 50% | fraction of the cells positive for GFP (THX cells; no light treatment): 1% | change in GFP expression with photosensitiser and light (THX cells): strong increase

Reference: patent publication US8216587B1, “Method of vaccination” (PCI Biotech AS, priority 1999, dated 2012)
